Experimental data published in article PMC8263017, “Cryo-EM Determination of Eravacycline-Bound Structures of the Ribosome and the Multidrug Efflux Pump AdeJ of Acinetobacter baumannii” (mBio, 2021).

Columns and labels:
[1] = molecular target: T1, AdeJ multidrug efflux pump (Acinetobacter baumannii, UniProt Q2FD94); test: single-particle cryo-EM structure ([…] A); details: 10 uM AdeJ-nanodisc with 20 uM eravacycline (dihydrochloride), 1 h; distal drug-binding site of the binding-state protomer, one molecule per trimer; no Mg2+ seen at the site
T1 construct: full-length, 1,058 residues (1,046 built per protomer); N-terminal 6xHis tag (pET15b); expressed in E. coli BL21(DE3) delta-acrB; DDM-purified, reconstituted in MSP 1E3D1 lipidic nanodiscs; homotrimer

[2] = molecular target: Acinetobacter drug efflux (Ade)J multidrug efflux pump of A. baumannii Ab0057 (Acinetobacter baumannii Ab0057) (UniProt Q2FD94); test: cryo-EM structure; single-particle cryo-EM of 10 μM AdeJ in lipidic nanodiscs, incubated with 20 μM eravacycline for 1 h; two classes in one sample (apo-AdeJ trimer and AdeJ-Era trimer); 20 mM Tris-HCl pH 7.5, 100 mM NaCl

Compound | single-particle cryo-EM structure (2.86 A) [1] | stoichiometry N [2]
CN(C)[C@@H]1C(=O)C(C(N)=O)=C(O)[C@@]2(O)C(=O)C3=C(O)c4c(O)c(NC(=O)CN5CCCC5)cc(F)c4C[C@H]3C[C@@H]12 [eravacycline] | large density corresponds to the bound Era drug located at the distal multidrug-binding site | 
Acinetobacter drug efflux (Ade)J multidrug efflux pump of A. baumannii Ab0057 (from UniProt Q2FD94 1-1058) (natural protein) |  | 3
